Source: the OPERA property sets (Mansouri et al. 2018)

Details: for log10 biotransformation half-life (days) / log10 BCF: fish

Compound | melting point | boiling point | further results
O=C1CCC(c2ccccc2)CC1 | 79.5 °C | – | –
OCCN1CCOCC1 | -1.6 °C | 227 °C | ready biodegradability: readily biodegradable
O=C1OC(=O)C2=C1CCCC2 | 74 °C | – | –
C=C(C)F | – | -24 °C | –
CNC | – | 6.8 °C | log10 Henry constant (atm·m³/mol): -4.75; log10 Koa: 2; log10 vapour pressure (mmHg): 3.18; ready biodegradability: readily biodegradable
O=C(O)c1cccc2ccccc12 | – | – | ready biodegradability: not readily biodegradable
C=Cc1ccc(C)nc1 | – | 181 °C | log10 vapour pressure (mmHg): 0.0719
C[Si](C)(C)Oc1ccccc1 | -55 °C | 119 °C | –
CCN(CC)C(=O)[C@@H]1C=C2c3cccc4[nH]cc(c34)C[C@H]2N(C)C1 | 82.5 °C | – | –
CCC#CCCCC | -104 °C | 133 °C | –
COCC(O)COC | – | 169 °C | –
CC(C)c1ccccc1C(=O)O | – | – | log10 vapour pressure (mmHg): -3.46
C[N+](C)(C)CC(=O)O.[Cl-] | 242 °C | – | –
CCCC(C)(C)C(C)(C)C | -54 °C | 160 °C | log10 vapour pressure (mmHg): 0.589
Clc1ccc(-c2c(Cl)cccc2Cl)cc1 | – | – | log10 Henry constant (atm·m³/mol): -3.7; log10 Koa: 7.72; log10 biotransformation half-life (days): 2.44
c1ccc2c(c1)CCCN2 | 20 °C | 251 °C | –
COC(=O)c1cccc(I)c1 | 54.5 °C | 277 °C | –
CC(=O)Nc1ccc(OCC(O)CNC(C)C)cc1 (centres undefined) | 135 °C | – | –
CCOC(=O)C(=O)c1ccccc1 | – | 256 °C | –
NS(=O)(=O)c1ccc(SCCO)c(F)c1 | 110 °C | – | –
CC(=O)OC1CCCCC1 | -65 °C | 173 °C | log10 vapour pressure (mmHg): 1.03
COC(=O)c1ccc(Cl)c([N+](=O)[O-])c1 | 83 °C | – | –
Cc1ccc(CC=O)cc1 | 40 °C | 222 °C | –
O=C(Nc1ccc(Cl)c(Cl)c1)Nc1cc(Cl)ccc1Oc1ccc(Cl)cc1S(=O)(=O)O | – | – | ready biodegradability: not readily biodegradable; log10 BCF: 1.87
Clc1cc(Cl)c(-c2cccc(Cl)c2Cl)cc1Cl | – | – | log10 Henry constant (atm·m³/mol): -4.13; log10 Koc (L/kg): 5.69; log10 biotransformation half-life (days): 2.55

Compound | melting point | boiling point | further results
Cc1cocn1 | – | 88 °C | –
O=C(CCCN1CC=C(n2c(=O)[nH]c3ccccc32)CC1)c1ccc(F)cc1 | 146 °C | – | –
Cc1ccc(N)cc1Cl | 26 °C | 243 °C | –
C1CCN(CCN2CCCCC2)CC1 | -0.5 °C | 265 °C | –
COc1cccc(OC)c1C | 40 °C | – | –
CC(C)CCOC(=O)C(C)C | – | 168 °C | –
CCCSP(=S)(OCC)Oc1ccc(SC)cc1 (centres undefined) | -15 °C | – | log10 Koc (L/kg): 4.08; log10 vapour pressure (mmHg): -5.92
Nc1c([N+](=O)[O-])cccc1[N+](=O)[O-] | 142 °C | – | –
O=C(O)CCCC(=O)c1ccccc1 | 127 °C | – | –
CCCCC(CC)COC(=O)CCCCCCCCC(=O)OCC(CC)CCCC (centres undefined) | -48 °C | – | –
FC(Cl)C(Cl)Cl (centres undefined) | – | 102 °C | –
c1ccc2scnc2c1 | 2 °C | 231 °C | ready biodegradability: not readily biodegradable; log10 BCF: 0.88; log10 biotransformation half-life (days): -0.86
NS(=O)(=O)c1ccccc1[N+](=O)[O-] | 191 °C | – | –
O=P(c1ccccc1)(c1ccccc1)c1ccccc1 | 156 °C | – | log10 vapour pressure (mmHg): -8.59
CC(C)OP(=O)(OC(C)C)OC(C)C | – | 219 °C | –
C=C(C)C1CC=C(C=O)CC1 (centres undefined) | – | 240 °C | –
O=C(CI)c1ccccc1 | 34.4 °C | – | –
Cc1ccccc1CC=O | – | 221 °C | –
O=C(O)c1nc[nH]c1C(=O)O | 288 °C | – | –
Cc1cc(C(=O)O)ccc1N | 170 °C | – | –
Clc1cc(Cl)c2cc(Cl)c(Cl)c(Cl)c2c1 | – | – | log10 Koa: 8.82; log10 vapour pressure (mmHg): -5.68
O=[N+]([O-])c1cc(F)cc(F)c1 | 17 °C | 176 °C | –
NS(=O)(=O)c1cc2c(s1)S(=O)(=O)CCC2=O | 242 °C | – | –
OCCc1ccc(O)cc1 | 90 °C | – | –
OC1(c2ccccc2)CCCCC1 | 63.5 °C | – | –

Compound | melting point | boiling point | further results
Clc1cc2c(Cl)ccc(Cl)c2c(Cl)c1Cl | – | – | log10 Koa: 9.1; log10 vapour pressure (mmHg): -6
O=C(Oc1ccccc1)n1c(C(F)(F)F)nc2cc(Cl)c(Cl)cc21 | 103 °C | – | –
CCCN1C[C@H](CSC)C[C@@H]2c3cccc4[nH]cc(c34)C[C@H]21 | 208 °C | – | –
Nc1ncnc2c1ncn2[C@@H]1O[C@@H]2COP(=O)(O)O[C@H]2[C@H]1O | 220 °C | – | –
CCC(C)C(C)(C)CC (centres undefined) | -101 °C | 140 °C | log10 vapour pressure (mmHg): 0.948
C=COC(C)(C)C | -112 °C | 75 °C | –
CCC(C(=O)O)c1ccc(-c2ccccc2)cc1 (centres undefined) | 124 °C | – | –
Cc1cc(C(C)(C)C)c(C)cc1O | 71.2 °C | 264 °C | –
COc1ccc(NC(=O)N(C)C)cc1Cl | 126 °C | – | log10 Koc (L/kg): 1.72
CC | -183 °C | -88.6 °C | log10 Koa: 0.42; log10 vapour pressure (mmHg): 4.5
CCC(O)C(CC(C)N(C)C)(c1ccccc1)c1ccccc1 (centres undefined) | 127 °C | – | –
CC(CCC(=O)O)n1nc2ccccc2n1 (centres undefined) | 73 °C | – | –
CC1CCCC(C)C1 (centres undefined) | – | 122 °C | log10 vapour pressure (mmHg): 1.3
CCCC(=O)N(C)C | -40 °C | 186 °C | –
CCOC(=O)C(C)(C)Oc1ccc(Cl)cc1 | – | – | ready biodegradability: readily biodegradable
CCCCOC(=O)C(=O)OCCCC | -30.5 °C | 241 °C | –
COc1ccc2c(c1)c(CC(=O)OCC(=O)O)c(C)n2C(=O)c1ccc(Cl)cc1 | 152 °C | – | –
NCCc1cnc[nH]1 | 86 °C | – | –
O=C1c2ccccc2C(=O)c2cc(Br)ccc21 | 206 °C | – | –
CCCC(=NOCC)C1=C(O)CC(C2CCCSC2)CC1=O (centres undefined) | 41 °C | – | log10 vapour pressure (mmHg): -7.12
CCOC(=O)C(F)(F)C(F)(F)C(F)(F)F | – | 95 °C | –
Cc1cccc(C)c1 | -47.8 °C | 139 °C | log10 Henry constant (atm·m³/mol): -2.14; log10 Koa: 3.78; log10 Koc (L/kg): 2.25; log10 biodegradation half-life (days): 1; log10 vapour pressure (mmHg): 0.919; ready biodegradability: readily biodegradable; log10 BCF: 1.17
O=c1cccccc1O | 50.8 °C | – | –
CCCOC(=O)c1ccc(N)cc1 | 75 °C | – | –
O=[N+]([O-])c1ccccc1Nc1ccccc1 | 75 °C | – | log10 vapour pressure (mmHg): -5

Compound | melting point | boiling point | further results
O=S(=O)(O)C(F)(F)C(F)(F)C(F)(F)C(F)(F)C(F)(F)C(F)(F)F | – | 238 °C | –
O=NN1CCOCC1 | 29 °C | 225 °C | –
CCCCCCCCCCC#N | – | 253 °C | –
CCCCCCC(=O)CCCCCC | 33 °C | 261 °C | log10 vapour pressure (mmHg): -2.18
C=CCOP(=O)(OCC=C)OCC=C | – | – | log10 BCF: 0.08
CN1CC[C@]23c4c5ccc(OCc6ccccc6)c4O[C@H]2[C@@H](O)C=C[C@H]3[C@H]1C5 | 132 °C | – | –
O=C(Nc1ccc(Cl)cc1)Nc1ccc(Cl)c(C(F)(F)F)c1 | 214 °C | – | –
Cc1cc(Br)ccc1[N+](=O)[O-] | 78 °C | – | –
CC(C)(C)CC(C)(C)C | -66.5 °C | 122 °C | log10 vapour pressure (mmHg): 1.3
Clc1cccc(Oc2ccc(Cl)c(Cl)c2)c1 | – | – | log10 vapour pressure (mmHg): -3.91
COc1ccc(Cn2cncn2)cc1 | 41.5 °C | – | –
Oc1ncnc2[nH]ncc12 | 350 °C | – | –
Clc1cccc(-c2cccc(Cl)c2)c1 | 29 °C | 320 °C | log10 Henry constant (atm·m³/mol): -3.63; log10 vapour pressure (mmHg): -3.19
CC(=O)c1ccc(C)cc1C | – | 228 °C | –
Brc1cc(Br)c(Br)c(Oc2ccc(Br)c(Br)c2Br)c1 | – | – | ready biodegradability: not readily biodegradable
O=C(C=Cc1ccccc1)c1ccccc1O | 90 °C | – | –
Cc1cc(Cl)ccc1OCC(=O)O | 120 °C | 287 °C | log10 Koc (L/kg): 1.73; log10 vapour pressure (mmHg): -5.23; ready biodegradability: not readily biodegradable
BrC=Cc1ccccc1 | 7 °C | – | ready biodegradability: not readily biodegradable
O=[N+]([O-])c1ccc(CBr)cc1 | 99 °C | – | –
CCc1c(C(=O)O)c(=O)cnn1-c1ccc(Cl)cc1 | 269 °C | – | –
OCc1c(F)c(F)c(F)c(F)c1F | 37.5 °C | 181 °C | –
CC(C)CCO | – | 131 °C | log10 Henry constant (atm·m³/mol): -4.85; log10 Koa: 4.52; log10 vapour pressure (mmHg): 0.375; ready biodegradability: readily biodegradable
CC(=O)OO[N+](=O)[O-] | – | 106 °C | log10 Henry constant (atm·m³/mol): -3.56
Nc1cc2ccccc2c2ccccc12 | 138 °C | – | –
CCOC(=O)C(C(=O)OCC)=C(C)C | – | 176 °C | –

Compound | melting point | boiling point | further results
ON=Cc1ccc(F)cc1 | 83.5 °C | – | –
COc1ccccc1NC(N)=S | 156 °C | – | –
C[N+](C)(C)CCOC(=O)CCC(=O)OCC[N+](C)(C)C.[Cl-].[Cl-] | 190 °C | – | –
CC1(C)O[C@H]2CC(=O)OC[C@]23[C@H]2CC[C@@]4(C)[C@H](c5ccoc5)OC(=O)[C@H]5O[C@]54[C@]2(C)C(=O)C[C@@H]13 | 298 °C | – | –
CCOC(=O)C(CCC(C)C)C(=O)OCC | – | 241 °C | –
O=C(Nc1ccc(Cl)cc1)c1cc(Br)ccc1O | 240 °C | – | –
CC(=O)Nc1ccc(C=O)cc1 | 157 °C | – | –
Brc1ccc(Oc2ccccc2Br)c(Br)c1 | – | – | logP: 5.74
C1=CCCCC=C1 | -110 °C | 120 °C | –
CCOCCc1ccc(OCCN=c2[nH]cnc(CC)c2Cl)c(C)c1C | 70 °C | – | –
CO[C@@H]1[C@H](OC(=O)/C=C/C=C/C=C/C=C/C(=O)O)CC[C@]2(CO2)[C@H]1[C@@]1(C)O[C@@H]1CC=C(C)C | 194 °C | – | –
N=CN | 81 °C | – | –
CC(C)(N=C=O)c1ccc(C(C)(C)N=C=O)cc1 | – | – | log10 vapour pressure (mmHg): -3.12
COc1ccc2c(c1OC)C(=O)O[C@@H]2[C@H]1c2c(cc3c(c2OC)OCO3)CCN1C | 176 °C | – | –
Cc1c(Cl)cccc1Nc1ccccc1C(=O)O | 207 °C | – | ready biodegradability: not readily biodegradable
CCCOC | – | 39.1 °C | log10 vapour pressure (mmHg): 2.67
Cc1cccc(C(C)C)c1 | -63.7 °C | 175 °C | log10 vapour pressure (mmHg): 0.235; ready biodegradability: not readily biodegradable; log10 BCF: 2.73; log10 biotransformation half-life (days): 0.07
CC1CC(O)CC(C)(C)C1 (centres undefined) | 46.5 °C | 196 °C | –
O=C(O)c1ccc(C(F)(F)F)cc1 | 220 °C | – | –
Cc1ccc(C#N)cc1 | 29.5 °C | 217 °C | log10 vapour pressure (mmHg): -0.504
O=S(c1ccccc1)c1ccccc1 | 71.2 °C | – | –
CCCCCCCCCCCCCCCCCCC | 32.1 °C | 330 °C | log10 biodegradation half-life (days): 1.26; log10 vapour pressure (mmHg): -4.31; ready biodegradability: readily biodegradable
CC(=O)C(C)(C)C | -52.5 °C | 106 °C | log10 vapour pressure (mmHg): 1.5
CCCCCCCCCCCCCCCC(=O)OC[C@H](O)[C@H]1OC(=O)C(O)=C1O | 116 °C | – | –
